# Data reported in publication PMC10878751, “N-Substituted Phenylhydrazones Kill the Ring Stage of Plasmodium falciparum” (BioMed Research International, 2024).
# Where two headings read alike, the source gives them in different places.
# How the values were obtained:
# [1] = tested on: 3D7 chloroquine-sensitive strain of Plasmodium falciparum; experiment: SYBR green antimalarial assay, 3D7 strain
# Experimental: (§1) The SYBR green and cytotoxicity assay procedure to determine the potency of the phenylhydrazones was according to [16].
# (§2) One-milligram (1 mg) powder of each compounds was weighed and transferred into dimethylsulphoxide (DMSO) (1 ml of 0.5% v/v) to yield a stock concentration of 1000 μg/ml. The stock solution was vortexed well to dissolve the compounds and later filtered through 0.2 μm pore filter unit and then stored in a -20°C freezer until use. The stock products were diluted 10-fold to obtain a working solution of 100 μg/ml. This working solution was further serially diluted […] to obtain the concentrations 100 μg/ml, 50 μg/ml, 25 μg/ml, 12.5 μg/ml, 6.25 μg/ml, 3.13 μg/ml, 1.56 μg/ml, 0.78 μg/ml, and 0.39 μg/ml.
# (§3) Continuous P. falciparum asexual cultures were maintained in vitro in an atmosphere of 93% N2, 4% CO2, and 3% O2 at 37°C in complete medium (CM) (10.44 g/liter Roswell Park Memorial Institute Medium (RPMI) 1640, 5.94 g/liter N-2-hydroxyethylpiperazine-N-2-ethane sulfonic acid (HEPES), 5 g/liter AlbuMAX II, 50 mg/liter hypoxanthine, and 2.1 g/liter sodium bicarbonate). Parasites were cultured in O+ RBCs and maintained in the incubator with daily media change until a parasitemia of more than 5% ring stages was obtained. The culture was then treated with 5% sorbitol to obtain synchronized ring stage, and parasite growth was monitored for some few days by estimating percentage (%) parasitemia using Giemsa-stained slides and light microscope with 100x magnification until parasitemia of more than 5% was recorded. Parasite suspension of 2% hematocrit with 1% parasitemia was prepared using uninfected blood to make a total of 14 ml in a complete culture medium for the plating. Compound plating and SYBR green assay were according to [16].
# (§4) One hundred (100) microliters of each nine dilutions (100 μg/ml, 50 μg/ml, 25 μg/ml, 12.5 μg/ml, 6.25 μg/ml, 3.13 μg/ml, 1.56 μg/ml, 0.78 μg/ml, and 0.39 μg/ml) was plated in duplicate in a 96-well coastal plate. 15 ng/ml of artesunate was serially diluted and plated alongside with the compounds as a standard antimalarial control drug. One hundred of parasite mix with 2% hematocrit and 1% parasitemia were added to each treated well starting from the 2nd well to the 10th well. One hundred microliters of parasite mix without any drug was added to the 11th well as a negative control, and the procedure was repeated for the rest of other extract/compounds. The plates were arranged in a modular chamber and gassed for 5 min with gas mixture of 5% oxygen, 5% carbon dioxide, and 90% nitrogen and then kept at 37°C for 72 h.
# (§5) The plates were harvested after 72 h, and the assays were paused by adding 100 μl lysing buffer containing SYBR green to each well and was thoroughly and gently mixed to avoid production of bubbles. The plates were then incubated in the dark for 30-60 minutes before reading the assay using FLUOstar OPTIMA Fluorometer plate reader with control software version 2.20 at 470 nm and 520 nm wavelengths.
# (§6) Each compound was tested in triplicate concentration that inhibits asexual Plasmodium falciparum parasite by 50% (IC50) estimated from dose-response curves by nonlinear regression analysis using GraphPad Prism version 7.0 software (GraphPad software, San Diego, CA, USA). Cytotoxicity analysis was carried out using Microsoft Excel Version 2010.
# [2] = tested on: DD2 chloroquine-resistance strain; experiment: SYBR green antimalarial assay, DD2 strain
# Experimental: as §1, §2, §3, §4, §5, §6
# [3] = tested on: uninfected red blood cells; experiment: MTT cytotoxicity assay; conditions: uninfected red blood cells, 72 h, MTT
# Experimental: as §1
# (§7) Following that, 100 μl of uninfected red blood cells was put to each well. Compound, culture medium, and uninfected red blood cells were subtracted from the optical densities by running control experiments for each parameter independently alongside the main experiment. The plates were then incubated for 72 hours at 37°C in a humidified incubator with 5% O2 and CO2 before 20 μl of 2.5 mg/ml MTT (in phosphate-buffered saline) solution was added to each well, and the plate was incubated for another 2 hours. After incubation, aliquots of culture medium (150 μl) were taken and discarded from each well, and 200 μl of Triton X-100 in acidified isopropanol was added to each well to dissolve any formazan produced. The plates were then maintained at room temperature in the dark for 24 hours before the optical densities of the wells were measured using a plate reader at 570 nm. […] The CC50 values were compared to the standard values.
# [4] = MTT cytotoxicity assay
# Experimental: as §1, §7
# [5] = Plasmodium falciparum, 3D7, 72 h, read-out: 3D7 IC50
# [6] = Plasmodium falciparum, DD2, 72 h, read-out: DD2 IC50
# [7] = Plasmodium falciparum, DD2, read-out: pIC50 Dd2 (converted)
# [8] = Plasmodium falciparum, 3D7, read-out: pIC50 3D7 (converted)
Molecule,"pIC50 3D7 ([1]; calculated from in vitro IC50s, 3D7 CS strain)","IC50 ([1]; read-out: 3D7 IC50, 3D7 chloroquine-sensitive strain, ring stage, 72 h, SYBR green)","pIC50 Dd2 ([2]; calculated from in vitro IC50s, DD2 CR strain)","IC50 ([2]; read-out: DD2 IC50, DD2 chloroquine-resistant strain, ring stage, 72 h, SYBR green)",CC50 [3],SI = CC50/IC50 for 3D7 [1],"IC50 [1, 5]",SI = CC50/IC50 for DD2 [2],"IC50 [2, 6]",CC50 at 72 h ([4]; uninfected red blood cells),SI = CC50/IC50 for 3D7 ([1]; selectivity index),"IC50 [2, 7]",SI = CC50/IC50 for DD2 ([2]; selectivity index),CC50 at 72 h [4],"IC50 [1, 8]"
"1-Benzylidene-2-(2,4-dinitrophenyl)hydrazine [PHN5]",4.25,19.02 ± 0.02 µM,4.71,6.591 ± 0.06 µM,112 µM,,,,,,,,,,
"C[C@H]1[C@H](OC(=O)CCC(=O)O)O[C@@H]2O[C@@]3(C)CC[C@H]4[C@H](C)CC[C@@H]1[C@@]24OO3 [Artesunate, reference compound]",,,,,,>1000,0.004688 ± 1.7e-05 µM,>1000,0.005063 ± 2.3e-05 µM,84.7 µM,,,,,
"O=[N+]([O-])c1ccc(NN=C(c2ccccc2)c2ccccc2)c([N+](=O)[O-])c1 [PHN1, (2,4-Dinitrophenyl)-2-(diphenylmethylene) Hydrazine]",,,,,,,31 ± 0.37 µM,,34.89 ± 0.17 µM,,3,89.1 µM,3,106 µM,
"O=[N+]([O-])c1ccc(NN=Cc2ccc(O)cc2O)c([N+](=O)[O-])c1 [PHN2, 4-(2-(2,4-Dinitrophenylhydrazono) Methyl) Benzene-1,3-diol]",,,,,,,14.12 ± 0.04 µM,,16.2 ± 0.17 µM,,8,40.7 µM,7,119 µM,269 µM
COc1cc(C=NNc2ccc([N+](=O)[O-])cc2[N+](=O)[O-])ccc1O [PHN3],,,,,,,6.6 ± 0.03 µM,,2.415 ± 0.01 µM,,20,6.61 µM,55,132 µM,18.2 µM
"O=[N+]([O-])c1ccc(NN=Cc2cccc(O)c2)c([N+](=O)[O-])c1 [PHN6, 3-(2-2(4-Dinitrophenyl) Hydrazono) Methylphenol]",,,,,,,1.29 ± 0.05 µM,,5.12 ± 0.07 µM,,79,17 µM,19,101 µM,4.27 µM
